Target: T1, recombinant human CETP (Homo sapiens, UniProt P11597)
T1 construct: made in house; host or cells: CHO cells
T1 sequence (P11597 18-493): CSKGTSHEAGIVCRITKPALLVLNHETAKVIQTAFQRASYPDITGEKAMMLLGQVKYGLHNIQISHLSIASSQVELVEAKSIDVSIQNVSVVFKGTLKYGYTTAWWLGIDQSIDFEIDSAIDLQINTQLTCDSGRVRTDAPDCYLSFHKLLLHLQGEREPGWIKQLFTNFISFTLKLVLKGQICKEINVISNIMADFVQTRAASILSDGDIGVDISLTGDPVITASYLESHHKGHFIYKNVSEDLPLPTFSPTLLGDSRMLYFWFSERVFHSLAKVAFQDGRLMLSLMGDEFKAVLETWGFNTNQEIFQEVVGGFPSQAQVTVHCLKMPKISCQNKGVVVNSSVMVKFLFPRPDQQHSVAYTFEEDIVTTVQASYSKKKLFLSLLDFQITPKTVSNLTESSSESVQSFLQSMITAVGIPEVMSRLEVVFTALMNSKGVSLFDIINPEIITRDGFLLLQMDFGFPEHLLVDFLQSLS
Assay: In vitro continuous CETP assay, CE transfer reaction (BODIPY-CE donor particles, fluorescence)
Type: biochemical
Settings: 25° C., 3% human serum, stated for the compounds 'or a stereoisomer of the compounds', read-out: IC50 value as measured for the CE transfer reaction
Procedure: An in vitro continuous assay for determining IC50's to identify compounds that are CETP inhibitors was performed based on a modification of the method described by Epps et al. employing BODIPY®-CE as the cholesteryl ester lipid donor and BODIPY®-TG as the triglyceride lipid donor. See Epps et al. (1995) Method for measuring the activities of cholesteryl ester transfer protein (lipid transfer protein), Chem. Phys. Lipids. 77, 51-63.
Particles used in the assay were created from the following materials by probe sonication essentially as described by Epps et al. Synthetic cholesteryl ester (CE) donor HDL particles contained DOPC (Dioleoyl Phosphatidyl Choline), BODIPY®-CE (Molecular Probes C-3927), triolein (a triglyceride), dabcyl dicetylamide, (a non-diffusable quencher molecule to reduce background fluorescence) and apoHDL. Synthetic triglyceride (TG) donor HDL particles contained DOPC, BODIPY®-TG, and apoHDL. BODIPY®-TG was synthesized at room temperature from diolein and the BODIPY containing fatty acid analog 4,4-difluoro-5-(2-thienyl)-4-bora-3a,4a-diaza-s-indacene-3-dodecanoic acid (Molecular Probes) in methylene chloride in the presence of dicyclohexyl carbodimide. Dabcyl dicetylamide was made by heating dabcyl n-succinimide with dicetylamine in DMF at 95° C. overnight in the presence of diisopropylamine catalyst. Native lipoproteins from human blood were used as acceptor particles. Particles having a density less than 1.063 g/ml were collected by ultracentrifugation. These particles include VLDL, IDL, and LDL. Particle concentrations were expressed in terms of protein concentration as determined by BCA assay (Pierce, USA). Particles were stored at 4° C. until use.
Assays were performed in Dynex Microfluor 2 U-bottom black 96-well plates (Cat #7205). An assay cocktail containing CETP, 1×CETP buffer (50 mM Tris, pH 7.4, 100 mM NaCl, 1 mM EDTA), 3% human serum, and half the final concentration of acceptor particles was prepared, and 100 μL of the assay cocktail was added to each well of the plate. Test compounds in DMSO were added in a volume of 3 μL. The plate was mixed on a plate shaker and then incubated at 25° C. for 1 hour. A second assay cocktail containing donor particles, the remaining acceptor particles and 1×CETP buffer was prepared. 47 μL of the second assay cocktail was added to the reaction wells to start the assay. Assays were performed in a final volume of 150 μL. CE transfer reactions were performed as follows: final concentrations of materials were: 2.5 ng/μL CE donor particles, 7.5 ng/μL acceptor particles (each expressed by protein content), 1×CETP buffer, 14-30 nM recombinant human CETP (expressed in CHO cells and partially purified), and up to 2% DMSO when testing compounds; reactions were followed in a fluorescence plate reader (Molecular Devices Spectramax GeminiXS) set for a 45 minute kinetic run at 25° C. which read the samples every 45 sec at Ex=480 nm, Em=511 nm, with a cutoff filter at 495 nm, photomultiplier tube setting of medium, calibration on, and 6 reads/well. TG transfer reactions were performed as described above with the exception that 2.5 ng/uL TG donor particles were used. TG transfer was measured at an excitation wavelength of 538 nm while reading emission at 568 nm every 45 sec for 45 min at 37° C. with a cutoff filter at 550 nm.
Data were evaluated by obtaining an initial rate, expressed in relative fluorescence units per second, for the pseudolinear portion of the curve, often 0-500 or 1000 sec. Comparison of the rates of samples with inhibitors to an uninhibited (DMSO only) positive control yielded a percent inhibition. A plot of percent inhibition vs. log of inhibitor concentration, fit to a Sigmoidal 4 parameter equation was used to calculate IC50.

SMILES	IC50 [nM]
CC(C)c1cc(C#N)cc2nc(-c3ccc(C(=O)NCC4CN(c5ccc(-c6ccccc6OC(F)(F)F)cn5)C(=O)O4)cc3)oc12 (stereo not shown) [Example 2, 4-(5-Cyano-7-isopropyl-1,3-benzoxazol-2-yl)-N-[(2-oxo-3-{5-[2-(trifluoromethoxy)phenyl]pyridin-2-yl}-1,3-oxazolidin-5-yl)methyl]benzamide]	18 to 100
CC(C)COc1ccccc1-c1ccc(N2CC(CNC(=O)c3ccc(-c4nc5cc(C#N)cc(C(C)C)c5o4)cc3)OC2=O)nc1 (stereo not shown) [Example 7]	18 to 100
CC(C)Oc1ccc(F)cc1-c1ccc(N2C[C@@H](CNC(=O)c3ccc(-c4nc5cc(C#N)cc(C(C)C)c5o4)cc3)OC2=O)nc1 [Example 30]	18 to 100
COc1cc(F)c(C(C)C)cc1-c1ccc(N2C[C@@H](CNC(=O)c3ccc(-c4nc5cc(C#N)cc(C(C)C)c5o4)cc3)OC2=O)nc1 [Example 31]	18 to 100
COc1ccccc1-c1ccc(N2C[C@H](CNC(=O)c3ccc(-c4nc5cc(C#N)cc(C(C)C)c5o4)cc3)OC2=O)nc1 [Example 43]	18 to 100
CC(C)Oc1cccc(F)c1-c1ccc(N2C[C@H](CNC(=O)c3ccc(-c4nc5cc(C#N)cc(C(C)C)c5o4)cc3)OC2=O)nc1 [Example 48]	18 to 100
CC(C)c1cc(C#N)cc2nc(-c3ccc(C(=O)NCC4(C)CN(c5ccc(-c6ccccc6OC(F)(F)F)cn5)C(=O)O4)cc3)oc12 (stereo not shown) [Example 51, 4-(5-Cyano-7-isopropyl-1,3-benzoxazol-2-yl)-N-[(5-methyl-2-oxo-3-{5-[2-(trifluoro-methoxy)phenyl]pyridin-2-yl}-1,3-oxazolidin-5-yl)methyl]benzamide]	18 to 100
COc1ccccc1-c1ccc(N2CC(C)(CNC(=O)c3ccc(-c4nc5cc(C#N)cc(C(C)C)c5o4)cc3)OC2=O)nc1 (stereo not shown) [Example 53]	18 to 100
CC(C)Oc1ccc(F)cc1-c1ccc(N2CC(C)(CNC(=O)c3ccc(-c4nc5cc(C#N)cc(C(C)C)c5o4)cc3)OC2=O)nc1 (stereo not shown) [Example 54]	18 to 100
CC(C)c1cc(C#N)cc2nc(-c3ccc(C(=O)NCC4(C)CN(c5ccc(-c6ccccc6)cn5)C(=O)O4)cc3)oc12 (stereo not shown) [Example 55]	18 to 100
